The results in this text go back to article PMC8140528 (Chemistry & biodiversity, 2021).

Series [1] concerns human T-lymphocyte cells (CEM). Kind of series: Antiproliferative effect on CEM cells. The following applies: read-out: IC50 CEM. The class given is cell-based.
For series [2], the system named is human cervix carcinoma cells (HeLa). Kind of series: Antiproliferative effect on HeLa cells. The settings on record: read-out: IC50 HeLa. The format is cell-based.
For series [3], the system named is murine leukemia cells (L1210). Kind of series: Antiproliferative effect on L1210 cells. The format is cell-based.
A short description of series [4]: Differential nuclear staining. The class given is cell-based. The following applies: human.
In series [5] the test system is CCRF-CEM (Acute Lymphoblastic leukemia). As to the kind of experiment: Differential nuclear staining. The class given is cell-based. The settings on record: Homo sapiens, CCRF-CEM, read-out: CC50 (death of 50% of the cells).
Series [6] is described as follows: Differential nuclear staining. The format is cell-based. The following applies: human. The source holds these as a separate data set.
Series [7] relates to Jurkat (Acute T Cell Leukemia). Kind of series: Differential nuclear staining. The format is cell-based. The following applies: Homo sapiens, Jurkat.
Series [8] in a line: Differential nuclear staining. The format is cell-based. The following applies: human, Hs27 non-cancerous fibroblast cells.
Series [9] concerns L1210, CEM and HeLa cells. Kind of series: Cytotoxicity screening over L1210, CEM and HeLa. The settings on record: read-out: IC50 (range over the cell lines tested), L1210, CEM and HeLa together. The format is cell-based.
In series [10] the test system is Jurkat cells. Kind of series: Annexin V-FITC/PI assay. The class given is cell-based, human. The settings on record: 7g at CC50 (2.36 μM) and CC100 (4.72 μM), vs vehicle control.
Series [11] has as its system Jurkat cells. As to the kind of experiment: Mitochondrial depolarization assay. The class given is cell-based, human. The settings on record: JC-1, flow cytometry, 5 h.
Series [12] concerns caspase-3 in Jurkat cells. Kind of series: Caspase-3 activation assay. The format is cell-based, human. The following applies: CC50 (2.36 μM) and CC100 (4.72 μM), 7 h, vs controls.
The test system of series [13] is Jurkat cells. Kind of series: Cell cycle analysis. The format is cell-based, human.
Setting [14] is: read-out: IC50 L1210, L1210 cells, mean ± SEM (n=3).
The mark [15] stands for this setting: Mus musculus, L1210, read-out: IC50 L1210.
Setting [16] is: read-out: CC50 (death of 50% of the cells).
The mark [17] stands for this setting: read-out: CC50 (range for compounds 7g and 8b).
Where [18] appears, read: cells treated with the CC50, 48 h.

Like-named read-outs stand apart in the source and are kept apart here.

With `COc1ccc(Cc2nn3cc(-c4cc5ccccc5oc4=O)nc3s2)cc1` [Compound 5h], the IC50 came out at 5000 ± 3300 nM in series [1] (CEM cells, mean ± SEM (n=3)); 70000 ± 4000 nM in series [2] (HeLa cells, mean ± SEM (n=3)); 90000 ± 24000 nM in series [3] (setting [14]).
Regarding `N[C@@H](Cc1ccc(N(CCCl)CCCl)cc1)C(=O)O` [Melphalan, reference compound], the IC50 turned out to be 1400 ± 400 nM in [1] (Homo sapiens, CCRF-CEM) and 2130 ± 20 nM in series [3] (setting [14]).
`COc1ccc(Cc2nn3c(C=O)c(-c4ccc(Cl)cc4)nc3s2)cc1` [Compound 8b, 6-(4-chlorophenyl)-2-(4-methoxybenzyl)imidazo[2,1-b][1,3,4]thiadiazole-5-carbaldehyde]: the IC50 in series [1] (Homo sapiens, CCRF-CEM) was 940 ± 120 nM; in series [2] (Homo sapiens, HeLa) it was 1300 ± 200 nM; in series [3] (setting [15]) it was 1100 ± 200 nM; in series [9] it was 940 to 1300 nM. The selectivity ratio in series [4] is 0.65; in series [6] it was 1.43. Also, the figures for the CC50 in [5], in series [7] (setting [16]) and in series [7] (setting [17]) were 3620 ± 260 nM, 1650 ± 190 nM and 1650 to 4730 nM, respectively. Also, in series [8], the CC50 at 72 h came out at 2360 ± 30 nM.
`COc1ccc(Cc2nn3c(SC#N)c(-c4cc5ccccc5oc4=O)nc3s2)cc1` [Compound 7g, 2-(4-methoxybenzyl)-6-(2-oxo-2H-chromen-3-yl)imidazo[2,1-b][1,3,4]thiadiazol-5-yl thiocyanate]: the IC50 in series [1] (Homo sapiens, CCRF-CEM) was 790 ± 350 nM; in [2] (Homo sapiens, HeLa), 780 ± 130 nM; in [3] (setting [15]) it was 1600 ± 200 nM; in series [9] it was 780 to 1600 nM. For the same compound, the selectivity ratio in series [4] was 6.65; in series [6], 13.3. In addition, the CC50 in [5] is 4730 ± 220 nM; in [7] (setting [16]), 2360 ± 100 nM; in series [7] (setting [17]), 1650 to 4730 nM. In series [8], this compound registered a CC50 at 72 h of 31400 ± 740 nM. Moreover, in the series on Jurkat cells [10], the phosphatidylserine externalization entry is given as “inducing phosphatidylserine externalization in a dose-response manner”. The mitochondrial membrane depolarization result in the series on Jurkat cells [11] is “not causing mitochondrial membrane depolarization”. For the same compound, in series [12], the caspase-3 activation result is “induced statistically significant activation of caspase-3”. Further, in the series with Jurkat cells [13] (7g at CC50 (2.36 μM) and CC100 (4.72 μM), 48 h), the “sub-G0/G1 subpopulation (DNA fragmentation)” value is “increase in sub-G0/G1 subpopulation”. The “cell population in G2-M phase” value in the series on Jurkat cells [13] (48 h) is “increase of the cell population in the G2-M phase”. Besides, the “cell population in S phase” value with Jurkat cells [13] (setting [18]) is recorded as “increase of cell population in the S phase”. Also, in the series with Jurkat cells [13] (setting [18]), the “cell subpopulation in G0-G1 phase” value is given as “decrease of cell subpopulation in the G0-G1 phase”.
`c1ccc([C@H]2CN3CCSC3=N2)cc1` [Levamisole, reference compound]: the IC50 is more than 250000 nM in [1] (Homo sapiens, CCRF-CEM) and more than 250000 nM in series [2] (Homo sapiens, HeLa).
